Assay results: patent US9326988B2, “Treatment and/or prevention of parkinson's disease dementia with ceftriaxone” (CHUNG SHAN MEDICAL UNIVERSITY, priority 2012, dated 2016)

Columns and labels:
rats with PDD [1] = assay: T-maze test (working memory) in MPTP-HCl-induced PDD rats; assay type: in vivo, male Wistar rats
Description: 1-methyl-4-phenyl-1,2,3,6-tetrahydropyridine hydrochloride (MPTP-HCl) was used to induce PDD in the rats, and the therapeutic effect of ceftriaxone on PDD was evaluated via behavioral tests and histopathological assessment of the brain for the rats. The experiments of this example were conducted substantially according to the method as described in Ho Y. J. et al. (2011), Behav. Brain Res., 219:280-290.
The rats in the pathological control group, the preventive groups, and the treatment groups were anesthetized using Zoletil (Virbac, Carros, France; 20 mg/kg, intraperitoneal injection). Afterward, 0.5 M MPTP-HCl (in saline) was slowly infused bilaterally into the substantia nigra pars compacta (SNc) of the mesencephalon of each rat in the pathological control group, the preventive groups, and the treatment groups (0.21 mg/side) so as to induce the same to develop PDD.
5 days before the MPTP-HCl injection, ceftriaxone (Sigma) was administered to the rats in the preventive groups 1,2 via […] day after the MPTP-HCl injection. After the MPTP-HCl injection, […] 2,3 via intraperitoneal injection respectively at a daily dose of 200 mg/kg, at a daily dose of 100 mg/kg, and at a daily dose of 200 mg/kg, and saline was administered to the rats in the pathological control group and the sham-operated group 1 via intraperitoneal injection at a daily dose of 1 mL/kg. […] The rats in the pathological control group, the treatment groups 1,2,3, and the sham-operated groups 1,2,3 were subjected to the once-a-day administration until the end of the 14th day after the MPTP-HCl injection.
Starting on the 8th day after the MPTP-HCl injection, the rats in each group were subjected to the T-maze test as described in section C of this example. Starting on the 12th day after the MPTP-HCl injection, the rats in each group were subjected to the object recognition test as described in section D of this example. On the 15th day after the MPTP-HCl injection, the rats in the treatment group 1, the sham-operated group 1, and the pathological control group were subjected to the histopathological analysis as described in section E of this example.
In order to investigate the effect of ceftriaxone on the working memory of the rats with PDD, on the 8th day after the MPTP-HCl injection, 11 rats, 32 rats, and 36 rats were randomly selected respectively from the treatment group 1, the sham-operated group 1, and the pathological control group, and the aforesaid randomly selected rats and each of the rats in the rest of the groups were subjected to a T-maze test. The T-maze test lasted a total of three days, and was conducted substantially according to the following methods: • (1) One day before the start of the T-maze test, the rats are subjected to 23 hours of fasting. Furthermore, on each of three days for the training session, after all of trials were finished, the rats were fed for an hour. • (2) The training session—the 1st and 2nd days of the T-maze test: • The respective rat is subjected to a total of 9 trials. In each of the trials, one forced run and one choice run were sequentially conducted. The time interval between the forced run and the choice run was 30 seconds. The respective rat was placed at the start end 11 of the T-maze to begin either the forced run or the choice run. When the forced run was conducted, the sliding door 22 of one of the two choice arms 2 was closed, and a food serving as a reward was placed at the terminal end 21 of the other one of the two choice arms 2.

rats with PDD [2] = assay: Immunohistochemical staining (OX-6) of activated microglia in the SNc of PDD rats; assay type: in vivo, male Wistar rats; settings: Example 1 treatment group 1: 200 mg/kg daily i.p. for 14 days after MPTP-HCl; determined 15th day (FIG. 5)
Description: In order to investigate whether ceftriaxone is effective in ameliorating neuroinflammation and neurodegeneration of the rats with PDD, on the 15th day after the MPTP-HCl injection, four rats were randomly selected from each of the treatment group 1, the sham-operated group 1, and the pathological control group for histopathological analysis.
The randomly selected rats were sacrificed using CO2, followed by perfusion with 4% paraformaldehyde (in phosphate buffered saline). The brains were rapidly removed and were post-fixed in a 30% sucrose solution containing 4% paraformaldehyde at 4° C. for at least three days. The brains were cut into coronal sections (a thickness of about 30 μm) using a cryostat (Leica CM3050 S, Leica).
The sections containing SNc were selected. […]
The experimental data are expressed as mean±SEM. The experimental data were subjected to one-way ANOVA and were subsequently subjected to LSD test such that the difference between the pathological control group and the sham-operated group 1, and the difference between the treatment group 1 and the pathological control group could be evaluated. […]

[3] = test system: 6-hydroxydopamine (6-OHDA)-lesioned rats; settings: 6-OHDA-lesioned rats (animal model of PD); cited from earlier work

CO/N=C(\C(=O)N[C@@H]1C(=O)N2C(C(=O)O)=C(CSc3nc(=O)c(=O)[nH]n3C)CS[C@H]12)c1csc(N)n1 [ceftriaxone, Ceftriaxone]
correct response rate compared to the pathological control group (rats with PDD [1]; Example 1 preventive group 1: 100 mg/kg daily i.p. from 5 days before MPTP-HCl to 14th day after, determined 10th day (FIG. 3)): higher
correct response rate compared to the pathological control group (rats with PDD [1]; Example 1 preventive group 2: 200 mg/kg daily i.p. from 5 days before MPTP-HCl to 14th day after, determined 10th day (FIG. 3)): higher
correct response rate compared to the pathological control group (rats with PDD [1]; Example 1 treatment group 1: 200 mg/kg daily i.p. after MPTP-HCl injection to 14th day, determined 10th day, difference statistically significant (FIG. 3)): higher
correct response rate compared to the pathological control group (rats with PDD [1]; Example 1 treatment group 2: 100 mg/kg daily i.p. starting 3rd day after MPTP-HCl to 14th day, determined 10th day, difference statistically significant (FIG. 3)): higher
correct response rate compared to the pathological control group (rats with PDD [1]; Example 1 treatment group 3: 200 mg/kg daily i.p. starting 3rd day after MPTP-HCl to 14th day, determined 10th day, difference statistically significant (FIG. 3)): higher
correct response rate compared to the pathological control group (rats with PDD [1]; Example 2 treatment group 1: 10 mg/kg daily i.p. after MPTP-HCl injection to 14th day, determined 10th day (FIG. 7)): significantly higher
correct response rate compared to the pathological control group (rats with PDD [1]; Example 2 treatment group 2: 50 mg/kg daily i.p. after MPTP-HCl injection to 14th day, determined 10th day (FIG. 7)): significantly higher
density of activated microglia in the SNc compared to the pathological control group (rats with PDD [2]): significantly lower
motor symptoms [3]: useful in amelioration of motor symptoms
neuroprotection of dopaminergic neurons [3]: neuroprotection of dopaminergic neurons
